Test results published in patent US20260297085A1, “1 H-PYRROLO[2,3-B]PYRIDIN-4-YL]-2-OXOPYRROLIDINE-3-CARBONITRILE DERIVATIVES AS TYROSINE KINASE 2 (TYK2) INHIBITORS FOR THE TREATMENT OF INFLAMMATORY DISEASES” (BIOGEN MA INC., priority 2023, published 2026).
Counter-ions that a name gives are not always drawn.

Columns and labels:
[1] = biological target: T1, human JAK2 kinase domain (JH1) (Homo sapiens, UniProt O60674); test: JH1 biochemical assay for JAK2 (ADP-Glo kinase assay, recombinant JH1 catalytic domain, JAK3-974 peptide, 15 μM ATP); conditions: JH1 kinase domain, ADP-Glo
T1 construct: recombinantly generated catalytic kinase (also known as JH1) domain of human JAK1, JAK2, JAK3 and TYK2
T1 sequence (O60674 849-1124 limits assumed): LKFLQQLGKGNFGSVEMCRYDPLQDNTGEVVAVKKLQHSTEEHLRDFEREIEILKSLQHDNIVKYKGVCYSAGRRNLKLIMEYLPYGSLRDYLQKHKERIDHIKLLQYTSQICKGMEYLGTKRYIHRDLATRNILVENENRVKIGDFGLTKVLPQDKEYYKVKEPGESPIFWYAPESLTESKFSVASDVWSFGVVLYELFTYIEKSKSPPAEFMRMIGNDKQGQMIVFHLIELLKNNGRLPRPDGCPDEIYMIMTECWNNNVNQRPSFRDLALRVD
How it was run: (§1)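 Compounds were titrated in 11 points of 3-fold dilution starting at 10 μM or 1 μM. Enzyme (JAK1 4 nM, JAK2 0.2 nM, JAK3 0.3 nM, TYK2 2 nM) and 50 μM peptide reacted for 100 minutes, followed by ADP-to-luminescence detection; IC50 by 4-parameter fit.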

[2] = biological target: T2, human JAK1 kinase domain (JH1) (Homo sapiens, UniProt P23458); test: JH1 biochemical assay for JAK1 (ADP-Glo kinase assay, recombinant JH1 catalytic domain, JAK3-342 peptide, 35 μM ATP); conditions: JH1 kinase domain, ADP-Glo
T2 construct: recombinantly generated catalytic kinase (also known as JH1) domain of human JAK1, JAK2, JAK3 and TYK2
T2 sequence (P23458 875-1153 limits assumed): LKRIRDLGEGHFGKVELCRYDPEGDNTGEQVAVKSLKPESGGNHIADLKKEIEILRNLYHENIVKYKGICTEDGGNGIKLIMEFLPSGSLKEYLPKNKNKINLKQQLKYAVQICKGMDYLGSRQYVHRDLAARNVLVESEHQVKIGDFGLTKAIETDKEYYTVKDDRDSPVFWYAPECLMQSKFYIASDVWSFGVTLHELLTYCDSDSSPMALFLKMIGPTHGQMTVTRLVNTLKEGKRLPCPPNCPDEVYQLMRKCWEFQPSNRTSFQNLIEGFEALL
How it was run: as §1

[3] = biological target: Tyk2 kinase activity on STAT4 in NK92 cells (Homo sapiens, UniProt P29597); test: pSTAT4 cell assay (MSD; NK92 cells, 30 ng/mL IL2 stimulation); format: cell-based; conditions: 30 ng/mL IL2, 15 minutes
Sequence of Tyk2 kinase activity on STAT4 in NK92 cells (P29597 whole entry): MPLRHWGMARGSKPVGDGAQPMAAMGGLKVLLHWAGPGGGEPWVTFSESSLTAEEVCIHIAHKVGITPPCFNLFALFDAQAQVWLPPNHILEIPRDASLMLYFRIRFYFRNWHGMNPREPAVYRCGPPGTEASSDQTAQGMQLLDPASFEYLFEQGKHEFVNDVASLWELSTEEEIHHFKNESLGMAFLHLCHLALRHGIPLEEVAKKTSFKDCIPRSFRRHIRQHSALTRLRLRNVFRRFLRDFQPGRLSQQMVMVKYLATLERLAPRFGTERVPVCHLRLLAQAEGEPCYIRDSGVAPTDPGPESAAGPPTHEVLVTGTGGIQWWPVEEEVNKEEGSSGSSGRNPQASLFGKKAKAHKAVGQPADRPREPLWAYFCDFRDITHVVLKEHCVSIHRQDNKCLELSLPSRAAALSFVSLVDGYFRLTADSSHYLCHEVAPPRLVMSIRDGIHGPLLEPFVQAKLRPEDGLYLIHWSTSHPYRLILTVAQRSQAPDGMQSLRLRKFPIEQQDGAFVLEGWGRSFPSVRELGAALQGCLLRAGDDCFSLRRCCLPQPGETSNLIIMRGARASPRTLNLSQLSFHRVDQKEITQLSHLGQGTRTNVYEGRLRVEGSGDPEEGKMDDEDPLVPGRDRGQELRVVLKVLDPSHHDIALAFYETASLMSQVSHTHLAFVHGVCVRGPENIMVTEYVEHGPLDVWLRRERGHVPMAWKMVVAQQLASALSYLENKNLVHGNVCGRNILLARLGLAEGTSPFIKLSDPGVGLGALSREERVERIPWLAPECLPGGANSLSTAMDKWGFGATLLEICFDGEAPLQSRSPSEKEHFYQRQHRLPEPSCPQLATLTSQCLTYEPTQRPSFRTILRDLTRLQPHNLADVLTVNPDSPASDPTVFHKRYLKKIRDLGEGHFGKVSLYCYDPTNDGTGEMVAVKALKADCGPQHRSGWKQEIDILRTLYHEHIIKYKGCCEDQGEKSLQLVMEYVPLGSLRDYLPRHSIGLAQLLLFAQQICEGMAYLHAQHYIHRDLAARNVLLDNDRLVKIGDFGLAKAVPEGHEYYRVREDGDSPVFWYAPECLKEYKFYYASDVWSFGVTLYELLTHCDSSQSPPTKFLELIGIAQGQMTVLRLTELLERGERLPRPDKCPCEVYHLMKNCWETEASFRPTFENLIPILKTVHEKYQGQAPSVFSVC
How it was run: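 Cells natively expressing STAT4 and Tyk2 (NK92) are serum-starved to lower background phosphorylation, exposed to compound for 1 hr over a 10-point four-fold series starting at 10 μM, and stimulated with 30 ng/mL IL2 for 15 minutes. Phosphorylation is quantified on MSD with anti-STAT4 antibodies.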

[4] = biological target: JAK1 kinase activity on STAT3 in TF1 cells (Homo sapiens, UniProt P23458); test: pSTAT3 cell assay (MSD; TF1 cells, 30 ng/mL IL-6 stimulation); format: cell-based; conditions: 30 ng/mL IL-6, 15 minutes
Sequence of JAK1 kinase activity on STAT3 in TF1 cells (P23458 whole entry): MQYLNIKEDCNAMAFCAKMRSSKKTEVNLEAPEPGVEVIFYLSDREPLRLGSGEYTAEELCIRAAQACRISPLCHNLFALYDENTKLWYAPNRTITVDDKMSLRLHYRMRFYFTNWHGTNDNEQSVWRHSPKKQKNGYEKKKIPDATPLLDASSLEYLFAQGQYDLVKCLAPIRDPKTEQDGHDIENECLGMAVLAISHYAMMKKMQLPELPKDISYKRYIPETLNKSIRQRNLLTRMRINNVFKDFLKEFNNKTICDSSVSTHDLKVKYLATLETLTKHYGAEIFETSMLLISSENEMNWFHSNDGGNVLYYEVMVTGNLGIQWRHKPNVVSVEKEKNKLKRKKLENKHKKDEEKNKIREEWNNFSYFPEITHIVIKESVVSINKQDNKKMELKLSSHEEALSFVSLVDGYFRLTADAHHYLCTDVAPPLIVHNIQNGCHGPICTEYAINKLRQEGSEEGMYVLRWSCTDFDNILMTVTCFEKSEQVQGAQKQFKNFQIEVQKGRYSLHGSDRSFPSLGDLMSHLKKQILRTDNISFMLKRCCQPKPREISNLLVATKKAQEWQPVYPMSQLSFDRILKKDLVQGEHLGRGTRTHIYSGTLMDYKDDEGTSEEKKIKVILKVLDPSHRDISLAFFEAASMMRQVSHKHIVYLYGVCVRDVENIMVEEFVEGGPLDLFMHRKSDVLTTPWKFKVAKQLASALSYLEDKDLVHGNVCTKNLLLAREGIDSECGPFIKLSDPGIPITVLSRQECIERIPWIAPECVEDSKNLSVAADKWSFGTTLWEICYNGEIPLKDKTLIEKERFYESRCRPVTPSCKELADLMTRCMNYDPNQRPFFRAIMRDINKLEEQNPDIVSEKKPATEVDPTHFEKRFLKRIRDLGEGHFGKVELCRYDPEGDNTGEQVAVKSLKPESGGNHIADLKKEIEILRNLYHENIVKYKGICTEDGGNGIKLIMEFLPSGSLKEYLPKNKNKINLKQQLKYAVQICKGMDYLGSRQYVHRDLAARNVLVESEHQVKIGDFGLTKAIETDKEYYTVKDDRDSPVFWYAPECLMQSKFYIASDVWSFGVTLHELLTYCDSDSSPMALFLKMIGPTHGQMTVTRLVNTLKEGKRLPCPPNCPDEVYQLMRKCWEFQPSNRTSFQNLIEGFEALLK
Method: The inhibitory potency of compounds of the disclosure against the JAK1 kinase activity on STAT3 was evaluated using an MSD-platform plate-based assay format. TF1 cells natively expressing STAT3 and JAK1 were serum-starved to reduce background phosphorylation levels, then cells were treated with compounds of the disclosure for 1 hour with a 10-point four-fold dilution series starting at 10 μM. Cells were then stimulated with 30 ng/mL interleukin 6 (IL-6) for 15 minutes. Cells were lysed and pSTAT3 levels were quantitated using an MSD plate-based assay with anti-STAT3 antibodies. The data were normalized and the percent activity versus log concentration of compound was fitted with a 4-parameter logistic model to generate IC50 curves.

[5] = biological target: T3, human TYK2 kinase domain (JH1) (Homo sapiens, UniProt P29597); test: JH1 biochemical assay for TYK2 (ADP-Glo kinase assay, recombinant JH1 catalytic domain, JAK3-974 peptide, 10 μM ATP); conditions: JH1 kinase domain, ADP-Glo
T3 construct: recombinantly generated catalytic kinase (also known as JH1) domain of human JAK1, JAK2, JAK3 and TYK2
T3 sequence (P29597 897-1176 limits assumed): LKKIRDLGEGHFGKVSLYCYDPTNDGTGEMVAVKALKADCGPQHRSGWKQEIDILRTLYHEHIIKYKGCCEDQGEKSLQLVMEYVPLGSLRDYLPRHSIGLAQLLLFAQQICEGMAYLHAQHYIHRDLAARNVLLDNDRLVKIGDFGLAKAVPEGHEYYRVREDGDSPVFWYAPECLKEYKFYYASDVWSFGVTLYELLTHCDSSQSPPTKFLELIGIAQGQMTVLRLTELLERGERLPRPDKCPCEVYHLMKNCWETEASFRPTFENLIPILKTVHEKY
How it was run: as §1

[6] = biological target: JAK2 kinase activity on STAT5 in TF1 cells (Homo sapiens, UniProt O60674); test: pSTAT5 cell assay (MSD; TF1 cells, 30 ng/mL IL-3 stimulation); format: cell-based; conditions: 30 ng/mL IL-3, 15 minutes
Sequence of JAK2 kinase activity on STAT5 in TF1 cells (O60674 whole entry): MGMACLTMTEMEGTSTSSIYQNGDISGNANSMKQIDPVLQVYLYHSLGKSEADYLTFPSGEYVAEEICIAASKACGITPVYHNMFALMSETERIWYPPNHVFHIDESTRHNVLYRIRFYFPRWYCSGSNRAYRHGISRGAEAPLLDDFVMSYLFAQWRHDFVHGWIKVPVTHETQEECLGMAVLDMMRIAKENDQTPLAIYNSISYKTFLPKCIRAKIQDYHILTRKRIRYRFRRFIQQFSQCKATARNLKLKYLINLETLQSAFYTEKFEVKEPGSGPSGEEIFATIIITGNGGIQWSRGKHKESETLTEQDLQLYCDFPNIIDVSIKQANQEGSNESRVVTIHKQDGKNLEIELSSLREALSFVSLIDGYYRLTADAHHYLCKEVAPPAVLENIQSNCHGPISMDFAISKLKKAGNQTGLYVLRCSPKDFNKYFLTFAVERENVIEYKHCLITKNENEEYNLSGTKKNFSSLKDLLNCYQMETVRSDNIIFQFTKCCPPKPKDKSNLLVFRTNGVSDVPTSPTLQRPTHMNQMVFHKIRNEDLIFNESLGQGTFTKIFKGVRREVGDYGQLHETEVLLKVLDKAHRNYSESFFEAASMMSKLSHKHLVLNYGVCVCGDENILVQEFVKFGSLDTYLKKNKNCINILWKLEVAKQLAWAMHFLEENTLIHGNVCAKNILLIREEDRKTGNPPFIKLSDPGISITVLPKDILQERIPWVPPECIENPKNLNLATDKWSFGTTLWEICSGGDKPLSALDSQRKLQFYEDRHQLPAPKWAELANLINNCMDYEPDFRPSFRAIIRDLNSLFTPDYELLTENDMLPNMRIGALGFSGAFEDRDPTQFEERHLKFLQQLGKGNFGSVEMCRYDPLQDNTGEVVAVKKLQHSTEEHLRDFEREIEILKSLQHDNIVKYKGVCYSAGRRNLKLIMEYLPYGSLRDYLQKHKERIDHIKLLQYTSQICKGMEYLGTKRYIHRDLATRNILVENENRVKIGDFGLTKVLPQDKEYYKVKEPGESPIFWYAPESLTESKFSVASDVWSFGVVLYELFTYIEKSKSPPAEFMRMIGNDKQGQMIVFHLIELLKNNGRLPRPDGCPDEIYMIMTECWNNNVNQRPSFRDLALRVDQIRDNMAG
Method: The inhibitory potency of compounds of the disclosure against the JAK2 kinase activity on STAT5 was evaluated using an MSD-platform plate-based assay format. TF1 cells natively expressing STAT5 and JAK2 were serum-starved to reduce background phosphorylation levels, then cells were treated with compounds of disclosure for 1 hour with a 10-point four-fold dilution series starting at 10 μM. Cells were then stimulated with 30 ng/mL IL-3 for 15 minutes. Cells were then lysed and pSTAT5 levels were quantitated using an MSD plate-based assay with anti-STAT5 antibodies. The data were normalized and the percent activity versus log concentration of compound was fitted with a 4-parameter logistic model to generate a curve and an IC50 value.

[7] = biological target: T4, human JAK3 kinase domain (JH1) (Homo sapiens, UniProt P52333); test: JH1 biochemical assay for JAK3 (ADP-Glo kinase assay, recombinant JH1 catalytic domain, JAK3-974 peptide, 4 μM ATP); conditions: JH1 kinase domain, ADP-Glo
T4 construct: recombinantly generated catalytic kinase (also known as JH1) domain of human JAK1, JAK2, JAK3 and TYK2
T4 sequence (P52333 822-1111 limits assumed): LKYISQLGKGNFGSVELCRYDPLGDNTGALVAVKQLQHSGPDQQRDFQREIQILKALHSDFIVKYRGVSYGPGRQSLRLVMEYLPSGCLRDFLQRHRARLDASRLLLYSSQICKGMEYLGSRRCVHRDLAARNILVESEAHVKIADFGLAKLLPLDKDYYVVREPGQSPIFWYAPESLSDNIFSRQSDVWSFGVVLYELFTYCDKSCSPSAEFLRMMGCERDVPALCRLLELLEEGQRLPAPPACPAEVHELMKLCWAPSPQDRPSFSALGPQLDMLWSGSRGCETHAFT
How it was run: as §1

| Compound | IC50 [1] [nM] | IC50 [2] [nM] | IC50 [3] [nM] | IC50 [4] [µM] | IC50 [5] [nM] | IC50 [6] [µM] | IC50 [7] [nM] |
| --- | --- | --- | --- | --- | --- | --- | --- |
| C[C@@H]1CN(c2ccnn3cc(-c4cccc5c4cnn5C)cc23)C(=O)[C@]1(C#N)C1CC1 [Example 54, (3R,4S)-3-cyclopropyl-4-methyl-1-(6-(1-methyl-1H-indazol-4-yl)pyrrolo[1,2-b]pyridazin-4-yl)-2-oxopyrrolidine-3-carbonitrile] | 1000 to 5000 | 100 to 1000 | > 100 | 5 to 10 | 5 to 20 | > 10 | 100 to 1000 |
| C[C@@H]1CN(c2ccnn3cc(-c4ccn(C)n4)cc23)C(=O)[C@]1(C#N)C1CC1 [Example 63, (3R,4S)-3-cyclopropyl-4-methyl-1-(6-(1-methyl-1H-pyrazol-3-yl)pyrrolo[1,2-b]pyridazin-4-yl)-2-oxopyrrolidine-3-carbonitrile] | 100 to 1000 | 100 to 1000 | > 100 | > 10 | 5 to 20 | > 10 | 100 to 1000 |
| C[C@@H]1CN(c2ccnn3cc(-c4cnc5[nH]ccc5c4)cc23)C(=O)[C@]1(C#N)C1CC1 [Example 64, (3R,4S)-1-(6-(1H-pyrrolo[2,3-b]pyridin-5-yl)pyrrolo[1,2-b]pyridazin-4-yl)-3-cyclopropyl-4-methyl-2-oxopyrrolidine-3-carbonitrile] | 100 to 1000 | 100 to 1000 | 50 to 100 | 1 to 5 | 5 to 20 | 5 to 10 | 100 to 1000 |
| COc1cc(-c2cc3c(N4C[C@@H](C)[C@@](C#N)(C5CC5)C4=O)ccnn3c2)ccn1 [Example 65, (3R,4S)-3-cyclopropyl-1-(6-(2-methoxypyridin-4-yl)pyrrolo[1,2-b]pyridazin-4-yl)-4-methyl-2-oxopyrrolidine-3-carbonitrile] | 100 to 1000 | 100 to 1000 | 50 to 100 | 1 to 5 | 5 to 20 | > 10 | 100 to 1000 |
| C[C@@H]1CN(c2ccnn3cc(-c4cc[nH]n4)cc23)C(=O)[C@]1(C#N)C1CC1 [Example 66, (3R,4S)-1-(6-(1H-pyrazol-3-yl)pyrrolo[1,2-b]pyridazin-4-yl)-3-cyclopropyl-4-methyl-2-oxopyrrolidine-3-carbonitrile trifluoroacetate] | 100 to 1000 | 100 to 1000 | > 100 | 5 to 10 | 5 to 20 | > 10 | 100 to 1000 |
| Cc1ccc(-c2cc3c(N4C[C@@H](C)[C@@](C#N)(C5CC5)C4=O)ccnn3c2)cn1 [Example 67, (3R,4S)-3-cyclopropyl-4-methyl-1-(6-(6-methylpyridin-3-yl)pyrrolo[1,2-b]pyridazin-4-yl)-2-oxopyrrolidine-3-carbonitrile] | 100 to 1000 | 100 to 1000 | > 100 | 1 to 5 | 5 to 20 | 5 to 10 | 100 to 1000 |
| C[C@@H]1CN(c2ccnn3cc(-c4ccc5cnn(C)c5c4)cc23)C(=O)[C@]1(C#N)C1CC1 [Example 68, (3R,4S)-3-cyclopropyl-4-methyl-1-(6-(1-methyl-1H-indazol-6-yl)pyrrolo[1,2-b]pyridazin-4-yl)-2-oxopyrrolidine-3-carbonitrile] | 100 to 1000 | < 100 | 50 to 100 | 0.1 to 1 | 5 to 20 | 5 to 10 | 100 to 1000 |

The next lines start with the values.

| IC50 [1] [nM] | IC50 [2] [nM] | IC50 [3] [nM] | IC50 [4] [µM] | IC50 [5] [nM] | IC50 [6] [µM] | IC50 [7] [nM] | Compound |
| --- | --- | --- | --- | --- | --- | --- | --- |
| 100 to 1000 | 100 to 1000 | > 100 | 5 to 10 | 5 to 20 | > 10 | 100 to 1000 | C[C@@H]1CN(c2ccnn3cc(-c4cncc(O)c4)cc23)C(=O)[C@]1(C#N)C1CC1 [Example 53, (3R,4S)-3-cyclopropyl-1-(6-(5-hydroxypyridin-3-yl)pyrrolo[1,2-b]pyridazin-4-yl)-4-methyl-2-oxopyrrolidine-3-carbonitrile] |
| 100 to 1000 | < 100 | 5 to 20 | 0.1 to 1 | < 5 | 1 to 5 | 100 to 1000 | C[C@@H]1CN(c2ccnn3cc(-c4ccc5c(cnn5C)c4)cc23)C(=O)[C@]1(C#N)C1CC1 [Example 55, (3R,4S)-3-cyclopropyl-4-methyl-1-(6-(1-methyl-1H-indazol-5-yl)pyrrolo[1,2-b]pyridazin-4-yl)-2-oxopyrrolidine-3-carbonitrile] |
| 100 to 1000 | 100 to 1000 | > 100 | 5 to 10 | 5 to 20 | > 10 | 100 to 1000 | C[C@@H]1CN(c2ccnn3cc(-c4cccnc4F)cc23)C(=O)[C@]1(C#N)C1CC1 [Example 56, (3R,4S)-3-cyclopropyl-1-(6-(2-fluoropyridin-3-yl)pyrrolo[1,2-b]pyridazin-4-yl)-4-methyl-2-oxopyrrolidine-3-carbonitrile] |
| 100 to 1000 | 100 to 1000 | > 100 | 1 to 5 | 5 to 20 | > 10 | 100 to 1000 | C[C@@H]1CN(c2ccnn3cc(-c4ccc5ncnn5c4)cc23)C(=O)[C@]1(C#N)C1CC1 [Example 57, (3R,4S)-1-(6-([1,2,4]triazolo[1,5-a]pyridin-6-yl)pyrrolo[1,2-b]pyridazin-4-yl)-3-cyclopropyl-4-methyl-2-oxopyrrolidine-3-carbonitrile] |
| 100 to 1000 | 100 to 1000 | 50 to 100 | 1 to 5 | 5 to 20 | > 10 | 100 to 1000 | CNC(=O)c1ccc(-c2cc3c(N4C[C@@H](C)[C@@](C#N)(C5CC5)C4=O)ccnn3c2)cn1 [Example 58, 5-(4-((3R,4S)-3-cyano-3-cyclopropyl-4-methyl-2-oxopyrrolidin-1-yl)pyrrolo[1,2-b]pyridazin-6-yl)-N-methylpicolinamide] |
| 100 to 1000 | < 100 | 50 to 100 | 1 to 5 | < 5 | 5 to 10 | 100 to 1000 | C[C@@H]1CN(c2ccnn3cc(-c4cn[nH]c4)cc23)C(=O)[C@]1(C#N)C1CC1 [Example 59, (3R,4S)-1-(6-(1H-pyrazol-4-yl)pyrrolo[1,2-b]pyridazin-4-yl)-3-cyclopropyl-4-methyl-2-oxopyrrolidine-3-carbonitrile trifluoroacetate] |
| 100 to 1000 | 100 to 1000 | > 100 | 1 to 5 | 5 to 20 | > 10 | 100 to 1000 | C[C@@H]1CN(c2ccnn3cc(-c4cccnc4)cc23)C(=O)[C@]1(C#N)C1CC1 [Example 60, (3R,4S)-3-cyclopropyl-4-methyl-2-oxo-1-(6-(pyridin-3-yl)pyrrolo[1,2-b]pyridazin-4-yl)pyrrolidine-3-carbonitrile] |
| 100 to 1000 | < 100 | 20 to 50 | 0.1 to 1 | < 5 | 5 to 10 | 100 to 1000 | CC(=O)Nc1cc(-c2cc3c(N4C[C@@H](C)[C@@](C#N)(C5CC5)C4=O)ccnn3c2)ccn1 [Example 61, N-(4-(4-((3R,4S)-3-cyano-3-cyclopropyl-4-methyl-2-oxopyrrolidin-1-yl)pyrrolo[1,2-b]pyridazin-6-yl)pyridin-2-yl)acetamide] |
| 100 to 1000 | 100 to 1000 | 50 to 100 | 1 to 5 | < 5 | 1 to 5 | 100 to 1000 | C[C@@H]1CN(c2ccnn3cc(-c4ccc(N(C)C)nc4)cc23)C(=O)[C@]1(C#N)C1CC1 [Example 62, (3R,4S)-3-cyclopropyl-1-(6-(6-(dimethylamino)pyridin-3-yl)pyrrolo[1,2-b]pyridazin-4-yl)-4-methyl-2-oxopyrrolidine-3-carbonitrile] |
